Data on 24 molecules can be found in patent US20240368135A1 (VERTEX PHARMACEUTICALS INCORPORATED, priority 2021, published 2024).

SMILES strings stand for the structures.

The target of the experiment is human NaV 1.8 (Homo sapiens, UniProt Q9Y5Y9). In words: E-VIPR assay detecting and measuring NaV inhibition properties. The experiment is classed as cell-based. As to conditions: HEK cells expressing truncated human NaV 1.8; no human serum; read-out: IC50 in the E-VIPR Assay. In short, it runs like this: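 HEK cells expressing truncated, fully active human NaV1.8, with KIR2.1 BacMam co-transduction, were loaded with CC2-DMPE/DiSBAC6(3) voltage-sensing dyes for 20 min at room temperature. Compounds were tested in 11-point 3-fold dilutions (300 nM top final), optionally with 25% human serum, under electrical stimulation with FRET read-out.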
Chain of human NaV 1.8 (Q9Y5Y9 126-399 limits assumed): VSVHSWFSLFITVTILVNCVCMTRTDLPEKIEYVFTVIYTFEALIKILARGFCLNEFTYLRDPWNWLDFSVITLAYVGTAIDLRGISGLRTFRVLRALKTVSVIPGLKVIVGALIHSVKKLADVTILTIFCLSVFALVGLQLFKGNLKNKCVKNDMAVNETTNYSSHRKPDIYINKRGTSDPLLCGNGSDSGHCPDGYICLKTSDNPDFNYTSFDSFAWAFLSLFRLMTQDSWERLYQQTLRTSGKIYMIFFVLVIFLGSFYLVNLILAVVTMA
Chain of human NaV 1.8 (Q9Y5Y9 660-890 limits assumed): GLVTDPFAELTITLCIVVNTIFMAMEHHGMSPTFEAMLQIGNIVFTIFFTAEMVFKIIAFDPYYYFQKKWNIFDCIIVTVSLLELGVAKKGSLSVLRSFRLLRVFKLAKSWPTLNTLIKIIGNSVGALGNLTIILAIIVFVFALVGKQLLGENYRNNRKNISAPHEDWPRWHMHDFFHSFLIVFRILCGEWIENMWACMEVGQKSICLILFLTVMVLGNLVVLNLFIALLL
Chain of human NaV 1.8 (Q9Y5Y9 1148-1722 limits assumed): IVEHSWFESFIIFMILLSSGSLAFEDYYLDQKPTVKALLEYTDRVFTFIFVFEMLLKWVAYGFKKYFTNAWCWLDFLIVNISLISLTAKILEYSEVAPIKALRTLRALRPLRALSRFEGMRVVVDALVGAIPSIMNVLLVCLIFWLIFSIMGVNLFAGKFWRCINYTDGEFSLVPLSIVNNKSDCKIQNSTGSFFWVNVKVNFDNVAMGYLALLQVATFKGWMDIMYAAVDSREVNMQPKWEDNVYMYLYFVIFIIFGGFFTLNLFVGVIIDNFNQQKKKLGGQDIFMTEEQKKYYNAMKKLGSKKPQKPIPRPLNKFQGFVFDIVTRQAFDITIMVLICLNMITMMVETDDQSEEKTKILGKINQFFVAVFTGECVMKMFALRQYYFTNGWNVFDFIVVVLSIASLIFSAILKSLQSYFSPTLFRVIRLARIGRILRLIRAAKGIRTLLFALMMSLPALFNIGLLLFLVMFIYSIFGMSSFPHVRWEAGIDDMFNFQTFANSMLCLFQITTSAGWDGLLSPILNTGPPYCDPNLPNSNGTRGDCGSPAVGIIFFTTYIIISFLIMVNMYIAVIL
Broadly, the IC50 is the concentration needed to halve the response being measured. Regarding `Cc1nn(C(F)F)cc1NC(=O)[C@@H]1O[C@@](C)(C(F)(F)F)[C@@H](C)[C@H]1c1ccc(F)c(F)c1CN1CCN(C)CC1` [Compound 674, (2R,3S,4S,5R)-3-(3,4-difluoro-2-((4-methylpiperazin-1-yl)methyl)phenyl)-N-(1-(difluoromethyl)-3-methyl-1H-pyrazol-4-yl)-4,5-dimethyl-5-(trifluoromethyl)tetrahydrofuran-2-carboxamide], the IC50 is 100 to 1000 nM.

Consider `COc1c([C@H]2[C@H](C(=O)Nc3ccnc(OC4CCOCC4)c3)O[C@@](C)(C(F)(F)F)[C@H]2C)ccc(F)c1F` [Compound 195, (2R,3S,4S,5R)-3-(3,4-difluoro-2-methoxyphenyl)-4,5-dimethyl-N-(2-((tetrahydro-2H-pyran-4-yl)oxy)pyridin-4-yl)-5-(trifluoromethyl)tetrahydrofuran-2-carboxamide], for which the half-maximal inhibitory concentration (IC50) fell in the range of 10 to 100 nM.

Turning to `COc1c([C@H]2[C@H](C(=O)Nc3ccnc(N4C(=O)[C@@H]5C[C@H]4CN5C)c3)O[C@@](C)(C(F)(F)F)[C@H]2C)ccc(F)c1F` [Compound 489, (2R,3S,4S,5R)-3-(3,4-difluoro-2-methoxyphenyl)-4,5-dimethyl-N-(2-((1S,4S)-5-methyl-3-oxo-2,5-diazabicyclo[2.2.1]heptan-2-yl)pyridin-4-yl)-5-(trifluoromethyl)tetrahydrofuran-2-carboxamide], the concentration for half-maximal inhibition (IC50) was in the range of 10 to 100 nM.

Regarding `COc1c([C@H]2[C@H](C(=O)NCC3(c4ccccc4)CC3)O[C@@](C)(C(F)(F)F)[C@H]2C)ccc(F)c1F` [Compound 305, (2R,3S,4S,5R)-3-(3,4-difluoro-2-methoxyphenyl)-4,5-dimethyl-N-((1-phenylcyclopropyl)methyl)-5-(trifluoromethyl)tetrahydrofuran-2-carboxamide], the concentration for half-maximal inhibition (IC50) was no less than 1000 nM.

For `CCOc1c([C@@H]2[C@@H](C(=O)Nc3ccnc(S(C)(=O)=O)c3)O[C@](C)(C(F)(F)F)[C@@H]2C)ccc(F)c1F` (stereo in doubt) [Compound 4, rel-(2S,3R,4R,5S)-3-(2-ethoxy-3,4-difluorophenyl)-4,5-dimethyl-N-(2-(methylsulfonyl)pyridin-4-yl)-5-(trifluoromethyl)tetrahydrofuran-2-carboxamide], the IC50 is no less than 1000 nM.

Regarding `Cc1cncc(NC(=O)C2OC(C)(C(F)(F)F)C(C)C2c2ccc(F)c(F)c2OC2CC(O)C2)c1` [Compound 665, (2R,3S,4S,5R)-3-(3,4-difluoro-2-((1S,3R)-3-hydroxycyclobutoxy)phenyl)-4,5-dimethyl-N-(5-methylpyridin-3-yl)-5-(trifluoromethyl)tetrahydrofuran-2-carboxamide], the concentration for half-maximal inhibition (IC50) lay within 10 to 100 nM.

With `COc1c([C@H]2[C@H](C(=O)Nc3ccnc(N4C(=O)CN(C)C[C@@H]4C)c3)O[C@@](C)(C(F)(F)F)[C@H]2C)ccc(F)c1F` [Compound 469, (2R,3S,4S,5R)-3-(3,4-difluoro-2-methoxyphenyl)-N-(2-((S)-2,4-dimethyl-6-oxopiperazin-1-yl)pyridin-4-yl)-4,5-dimethyl-5-(trifluoromethyl)tetrahydrofuran-2-carboxamide], the IC50 is less than 10 nM.

On to `C[C@@H]1[C@H](c2ccc(F)c(F)c2OC(F)F)[C@@H](C(=O)Nc2ccc(C(N)=O)cc2)O[C@]1(C)C(F)(F)F` (stereo in doubt) [Compound 73, rel-(2S,3R,4R,5S)-N-(4-carbamoylphenyl)-3-(2-(difluoromethoxy)-3,4-difluorophenyl)-4,5-dimethyl-5-(trifluoromethyl)tetrahydrofuran-2-carboxamide], for which the IC50 is no less than 1000 nM.

`COc1c([C@H]2[C@H](C(=O)Nc3ccnc(C(C)(N)CO)c3)O[C@@](C)(C(F)(F)F)[C@H]2C)ccc(F)c1F` (single isomer, unassigned) [Compound 358, rel-(2R*,3S*,4S*,5R*)-N-(2-(2-amino-1-hydroxypropan-2-yl)pyridin-4-yl)-3-(3,4-difluoro-2-methoxyphenyl)-4,5-dimethyl-5-(trifluoromethyl)-tetrahydrofuran-2-carboxamide]: the half-inhibitory concentration (IC50) was less than 10 nM.

For the molecule `COc1c([C@H]2[C@H](C(=O)Nc3ccnc(S(=O)(=O)N(C)C)c3)O[C@@](C)(C(F)(F)F)[C@H]2C)ccc(F)c1F` (stereo in doubt) [Compound 449, rel-(2R,3S,4S,5R)-3-(3,4-difluoro-2-methoxyphenyl)-N-(2-(N,N-dimethylsulfamoyl)pyridin-4-yl)-4,5-dimethyl-5-(trifluoromethyl)tetrahydrofuran-2-carboxamide], the IC50 was less than 10 nM.

For `COCCn1ccc(NC(=O)[C@@H]2O[C@@](C)(C(F)(F)F)[C@@H](C)[C@H]2c2ccc(F)c(F)c2OCCO)n1` [Compound 552, (2R,3S,4S,5R)-3-(3,4-difluoro-2-(2-hydroxyethoxy)phenyl)-N-(1-(2-methoxyethyl)-1H-pyrazol-3-yl)-4,5-dimethyl-5-(trifluoromethyl)tetrahydrofuran-2-carboxamide], the IC50 was no less than 1000 nM.

In the case of `Cc1nn(C(F)F)cc1NC(=O)[C@@H]1O[C@@](C)(C(F)(F)F)[C@@H](C)[C@H]1c1ccc(F)c(F)c1OCCO` [Compound 536, (2R,3S,4S,5R)-3-(3,4-difluoro-2-(2-hydroxyethoxy)phenyl)-N-(1-(difluoromethyl)-3-methyl-1H-pyrazol-4-yl)-4,5-dimethyl-5-(trifluoromethyl)tetrahydrofuran-2-carboxamide], the IC50 is less than 10 nM.

Take `C[C@H]1[C@@H](c2ccc(F)c(F)c2OCC2CC(F)(F)C2)[C@H](C(=O)Nc2ccnc(CO)c2)O[C@@]1(C)C(F)(F)F` [Compound 644, (2R,3S,4S,5R)-3-(2-((3,3-difluorocyclobutyl)methoxy)-3,4-difluorophenyl)-N-(2-(hydroxymethyl)pyridin-4-yl)-4,5-dimethyl-5-(trifluoromethyl)tetrahydrofuran-2-carboxamide]: the concentration for half-maximal inhibition (IC50) was 10 to 100 nM.

Consider `C[C@@H]1[C@H](c2ccc(F)c(F)c2OC(F)F)[C@@H](C(=O)Nc2cc(S(C)(=O)=O)ccn2)O[C@]1(C)C(F)(F)F` (single isomer, unassigned) [Compound 71], for which the IC50 was no less than 1000 nM.

Turning to `COCC(C)(N)c1cc(NC(=O)[C@@H]2O[C@@](C)(C(F)(F)F)[C@@H](C)[C@H]2c2ccc(F)c(F)c2OC)ccn1` (single isomer, unassigned) [Compound 352, rel-(2R*,3S*,4S*,5R*)-N-(2-(2-amino-1-methoxypropan-2-yl)pyridin-4-yl)-3-(3,4-difluoro-2-methoxyphenyl)-4,5-dimethyl-5-(trifluoromethyl)-tetrahydrofuran-2-carboxamide], the IC50 was less than 10 nM.

With `COc1c([C@@H]2[C@@H](C(=O)Nc3ccc4cnnn4c3)O[C@](C)(C(F)(F)F)[C@@H]2C)ccc(F)c1C(F)F` (stereo in doubt) [Compound 160, rel-(2S,3R,4R,5S)-N-([1,2,3]triazolo[1,5-a]pyridin-6-yl)-3-(3-(difluoromethyl)-4-fluoro-2-methoxyphenyl)-4,5-dimethyl-5-(trifluoromethyl)tetrahydrofuran-2-carboxamide], the IC50 was in the range of 100 to 1000 nM.

For `COCCOc1cc(NC(=O)[C@@H]2O[C@@](C)(C(F)(F)F)[C@@H](C)[C@H]2c2ccc(F)c(F)c2OCCO)ccn1` [Compound 567, (2R,3S,4S,5R)-3-(3,4-difluoro-2-(2-hydroxyethoxy)phenyl)-N-(2-(2-methoxyethoxy)pyridin-4-yl)-4,5-dimethyl-5-(trifluoromethyl)tetrahydrofuran-2-carboxamide], the IC50 is less than 10 nM.

With `COc1c([C@H]2[C@H](C(=O)Nc3ccc(C(N)=O)nc3)O[C@@](C)(C(F)(F)F)[C@H]2C)cc(O)c(F)c1F` [Compound 733, 5-((2R,3S,4S,5R)-3-(3,4-difluoro-5-hydroxy-2-methoxyphenyl)-4,5-dimethyl-5-(trifluoromethyl)tetrahydrofuran-2-carboxamido)picolinamide], the IC50 was less than 10 nM.

With `Cc1nn(C(F)F)cc1NC(=O)[C@@H]1O[C@@](C)(C(F)(F)F)[C@@H](C)[C@H]1c1ccc(F)c(F)c1OCC(N)=O` [Compound 605, (2R,3S,4S,5R)-3-(2-(2-amino-2-oxoethoxy)-3,4-difluorophenyl)-N-(1-(difluoromethyl)-3-methyl-1H-pyrazol-4-yl)-4,5-dimethyl-5-(trifluoromethyl)tetrahydrofuran-2-carboxamide], the concentration for half-maximal inhibition (IC50) was 10 to 100 nM.

For `COc1c([C@H]2[C@H](C(=O)Nc3ccnc(N4C[C@H]5C[C@@H](C4=O)N5C)c3)O[C@@](C)(C(F)(F)F)[C@H]2C)ccc(F)c1F` (single isomer, unassigned) [Compound 509, rel-(2R*,3S*,4S*,5R*)-3-(3,4-difluoro-2-methoxyphenyl)-4,5-dimethyl-N-(2-((1S,5R)-6-methyl-2-oxo-3,6-diazabicyclo[3.1.1]heptan-3-yl)pyridin-4-yl)-5-(trifluoromethyl)tetrahydrofuran-2-carboxamide], the IC50 is 10 to 100 nM.

With `COc1c([C@H]2[C@H](C(=O)Nc3ccnc(N4C[C@H](C)NCC4=O)c3)O[C@@](C)(C(F)(F)F)[C@H]2C)ccc(F)c1F` [Compound 478, (2R,3S,4S,5R)-3-(3,4-difluoro-2-methoxyphenyl)-4,5-dimethyl-N-(2-((S)-5-methyl-2-oxopiperazin-1-yl)pyridin-4-yl)-5-(trifluoromethyl)tetrahydrofuran-2-carboxamide], the IC50 fell in the range of 10 to 100 nM.

For `COc1c([C@H]2[C@H](C(=O)Nc3ccc(N)nc3)O[C@@](C)(C(F)(F)F)[C@H]2C)ccc(F)c1F` [Compound 523, (2R,3S,4S,5R)—N-(6-aminopyridin-3-yl)-3-(3,4-difluoro-2-methoxyphenyl)-4,5-dimethyl-5-(trifluoromethyl)tetrahydrofuran-2-carboxamide], the IC50 was less than 10 nM.

For `COc1c([C@H]2[C@H](C(=O)Nc3ccnc(C(C)(O)CO)c3)OC(C)(C)[C@H]2C)ccc(F)c1F` (single isomer, unassigned) [Compound 731], the IC50 fell in the range of 100 to 1000 nM.

`C[C@H]1[C@@H](c2ccc(F)c(F)c2OC(F)F)[C@H](C(=O)Nc2cncc(S(C)(=O)=O)c2)O[C@@]1(C)C(F)(F)F` (single isomer, unassigned) [Compound 96]: the IC50 is less than 10 nM.
